Source: patent publication US8703750B2, “Mixtures and methods for the induction of resistance in plants” (priority 2004, dated 2014)
Like-named read-outs stand apart in the source and are kept apart here.

Experiments:
Plasmopara viticola = details: in vivo
Protocol: After remaining 7 days in a conditioned environment, the plants were infected on the lower side with an aqueous suspension of Plasmorpara viticola spores (200,000 spores per cm^3).
(§1) The plants were kept in a humidity saturated environment, at 21° C., for the incubation period of the fungus and, at the end of this period (7 days), the fungicidal activity is evaluated according to an evaluation percentage scale from 100 (healthy plant) to 0 (completely infected plant).
E is the expected fungicidal activity, in the absence of synergetic effects, from a blend obtained by mixing g.x of the compound X with g.y of the compound Y;
x is the activity of compound X when used alone at a dose of g.x;
y is the activity of compound Y when used alone at a dose of g.y.
When the fungicidal activity found experimentally is greater than the value of E, said activity should be considered as being a synergetic effect.

Peronospora tabacina = assay: Control of Peronospora Tabacina on tobacco in preventive leaf application (greenhouse test); assay type: in vivo
Protocol: After remaining 7 days in a conditioned environment, the plants were infected on the lower side with an aqueous suspension of Peronospora Tabacina spores (200,000 spores per cm^3).
as §1, with “After remaining 24 hours” for “The plants were kept”, “C., the plants were transferred to another conditioned environment” for “C.,”

[1] = system: cultivar Borlotto of Vigevano bean plants; assay type: in vivo, bean plant; set-up: key: 100 = healthy plant, 0 = completely necrotic/decoloured
Protocol: After 7 days in a conditioned environment, the intensity of the necrosis or leaf decolouring is evaluated with an evaluation scale from 100 (healthy plant) to 0 (plant completely infected with necrosis or decoloured).

cultivar Merlot vines = assay: Undesired effects (necrosis or leaf decolouring) on vines in the Plasmopara viticola greenhouse test; details: in vivo
Protocol: Leaves of cultivar Merlot vines, grown in vases, in a conditioned environment (20±1° C., 70% relative humidity), were treated by spraying both sides of the leaves with the blends in question dispersed in an aqueous solution containing 0.3% of tween 20.

[2] = system: cultivar Burley tobacco plants; details: in vivo
Protocol: Leaves of cultivar Burley tobacco plants, grown in vases, in a conditioned environment (20±1° C., 70% relative humidity), were treated by spraying both sides of the leaves with the blends in question dispersed in an aqueous solution containing 0.3% of tween 20.
Undesired effects refer to the appearance of necrosis or leaf decolouring.

[3] = 125 ppm of each component, 7 days after leaf spraying, bean plant

Molecule: O=S(=O)([O-])[O-].[Fe+2] [FeSO4, iron sulphate]
- Activity (y) (Plasmopara viticola): 40
- Activity (y) (Peronospora tabacina; in vivo): 15

Molecule: Fe(III) glutamate
- Activity (y) (Plasmopara viticola): 16

Molecule: [Cl-].[Cl-].[Cu+2].[Cu+2].[Cu+2].[Cu+2].[OH-].[OH-].[OH-].[OH-].[OH-].[OH-] [Tetracopper oxychloride]
- Activity (y) (Plasmopara viticola): 28

Molecule: O=C(O)c1ccccc1[O-].O=C(O)c1ccccc1[O-].[Cu+2] [Cu^2+SA2, copper (II) salt of salicylic acid]
- Leaf decolouring ([1]; in vivo): 5
- Leaf necrosis ([1]; in vivo): 42

Molecule: O=S(=O)([O-])[O-].[Zn+2] [ZnSO4, zinc sulphate]
- Activity (y) (Plasmopara viticola): 22
- Activity (y) (Peronospora tabacina; in vivo): 20

Molecule: O=C(O)c1ccccc1[O-].O=C(O)c1ccccc1[O-].[Cu+2] [Cu^2+ SA, copper (II) salt of salicylic acid]
- Leaf decolouring ([1]; in vivo): 5
- Leaf necrosis ([1]; in vivo): 55

Molecule: O=c1ccc2ccccc2o1 [Cumarine]
- Activity (y) (Plasmopara viticola): 10

Molecule: [Cl-].[Cu+2].[Cu+2].[OH-].[OH-].[OH-] [Cu oxychloride, cuprum oxychloride]
- Activity (y) (Plasmopara viticola): 18

Molecule: copper phthalocyanine [Cu (II) Phthalocyanine]
- Activity (y) (Plasmopara viticola): 10
- Undesired effects (cultivar Merlot vines): 0

Molecule: O=c1ccc2cc(O[C@@H]3O[C@H](CO)[C@@H](O)[C@H](O)[C@H]3O)c(O)cc2o1 [Esculine, esculin]
- Activity (y) (Plasmopara viticola): 10

Molecule: CC(N)CC(=O)O (stereo not drawn) [BABA, β-aminobutyric acid, reference compound]
- Leaf decolouring [1, 3]: 15
- Leaf necrosis [1, 3]: 30

Molecule: titanium dioxide [TiO2]
- Activity (y) (Plasmopara viticola): 24
- Activity (y) (Peronospora tabacina; Table 5, compound alone at dose g.y ppm Equivalent Metal: TiO2 24, FeSO4 28, ZnSO4 33, CuSO4 32, ZnO 33): 5
- Undesired effects [2]: 0

Molecule: silicic acid
- Activity (y) (Plasmopara viticola): 14

Molecule: [Fe+2].c1ccc2c(c1)-c1nc-2nc2[n-]c(nc3nc(nc4[n-]c(n1)c1ccccc41)-c1ccccc1-3)c1ccccc21 [Fe (II) phthalocyanine, iron phthalocyanine]
- Activity (y) (Plasmopara viticola): 14

Molecule: O=S(=O)([O-])[O-].[Cu+2] [CuSO4, copper sulphate]
- Activity (y) (Plasmopara viticola): 48
- Activity (y) (Peronospora tabacina; in vivo): 45

Molecule: [Cu+2].[OH-].[OH-] [Cu hydroxide, cuprum hydroxyde]
- Activity (y) (Plasmopara viticola): 34

Molecule: O=C1NS(=O)(=O)c2ccccc21 [Saccharin, saccharin]
- Activity (y) (Plasmopara viticola): 30

Molecule: [O]=[Zn] [ZnO, zinc oxide]
- Activity (y) (Plasmopara viticola): 30
- Activity (y) (Peronospora tabacina; in vivo): 15

Molecule: FeNH4SO4
- Activity (y) (Plasmopara viticola): 18

Molecule: O=C(O)c1cc(Cl)nc(Cl)c1 [INA, 2,6-dichloroisonicotinic acid, reference compound]
- Leaf decolouring [1, 3]: 10
- Leaf necrosis [1, 3]: 50

Molecule: [C-]#N.[C-]#N.[C-]#N.[C-]#N.[C-]#N.[C-]#N.[C-]#N.[C-]#N.[C-]#N.[C-]#N.[C-]#N.[C-]#N.[C-]#N.[C-]#N.[C-]#N.[C-]#N.[C-]#N.[C-]#N.[Fe+2].[Fe+2].[Fe+2].[Fe+3].[Fe+3].[Fe+3].[Fe+3] [Prussian blue]
- Activity (y) (Plasmopara viticola): 13

Molecule: O=C([O-])[C@H](O)[C@@H](O)[C@H](O)[C@H](O)CO.O=C([O-])[C@H](O)[C@@H](O)[C@H](O)[C@H](O)CO.[Fe+2] [Fe (II) gluconate]
- Activity (y) (Plasmopara viticola): 28
